Measured values reported in US5250283A, “Organic contrast agent analog and method of making same” (priority 1992, dated 1993).
Where a name gives a salt, the structure may show the parent alone.

Experiment: Biliary excretion and bile flow after i.v. TFA-IOP (100 umol/kg) or IOP (100 in text, 104 umol/kg in tables) in rats
Details: for Percentage of dose per kg. body wt.: rat bile; for Percentage of dose per kg. body wt. / Bile flow / Bile flow per kg b.w. / Bile flow per kg l.w. / Biliary excretion rate / Biliary excretion rate per kg b.w. / Biliary excretion rate per kg l.w. / umoles in bile sample: i.v.
Method: Tissues examined included liver, spleen, upper GI, lower GI, kidney, lung and heart. The length of each study was 90 minutes, during which time bile, urine and plasma samples were taken to monitor uptake and excretion. NMR relaxation rates for liver and plasma were also examined to note whether uptake of either compound might possible alter these parameters.

[1] = rat, period 10-0 min (pre-injection)

CCC(Cc1c(I)cc(I)c(NC(=O)C(F)(F)F)c1I)C(=O)O (stereo not shown) [TFA-IOP, N-trifluoroacetyl-iopanoic acid]
Percentage of dose per kg. body wt. (0-10 min): 6.48 PERCENTAGE OF DOSE per kg. bod | Percentage of dose per kg. body wt. (10-20 min): 11.22 PERCENTAGE OF DOSE per kg. bod | Percentage of dose per kg. body wt. (20-30 min): 13.78 PERCENTAGE OF DOSE per kg. bod | Percentage of dose per kg. body wt. (30-40 min): 12.34 PERCENTAGE OF DOSE per kg. bod | Percentage of dose per kg. body wt. (40-50 min): 12.30 PERCENTAGE OF DOSE per kg. bod | Percentage of dose per kg. body wt. (50-60 min): 12.60 PERCENTAGE OF DOSE per kg. bod | Percentage of dose per kg. body wt. (60-70 min): 7.73 PERCENTAGE OF DOSE per kg. bod | Percentage of dose per kg. body wt. (70-80 min): 7.44 PERCENTAGE OF DOSE per kg. bod | Percentage of dose per kg. body wt. (80-90 min): 6.37 PERCENTAGE OF DOSE per kg. bod | Percentage of dose per kg. body wt. (period 10-0 min (pre-injection)): .70 PERCENTAGE OF DOSE per kg. bod | Cmax at 1.5 h (rat, bile, iv, 100 umol/kg): 0.5 µM | concentration at 0 h (rat, bile, iv, 100 umol/kg): 635 µM | concentration at 5 min (rat, bile, iv, 100 umol/kg): 3010 µM | concentration at 10 min (rat, bile, iv, 100 umol/kg): 3010 µM | concentration at 0.25 h (rat, bile, iv, 100 umol/kg): 5780 µM | concentration at 20 min (rat, bile, iv, 100 umol/kg): 5780 µM | concentration at 25 min (rat, bile, iv, 100 umol/kg): 6440 µM | concentration at 0.5 h (rat, bile, iv, 100 umol/kg): 6440 µM | concentration at 35 min (rat, bile, iv, 100 umol/kg): 7800 µM | concentration at 40 min (rat, bile, iv, 100 umol/kg): 7800 µM | concentration at 50 min (rat, bile, iv, 100 umol/kg): 7640 µM | concentration at 55 min (rat, bile, iv, 100 umol/kg): 8460 µM | concentration at 1 h (rat, bile, iv, 100 umol/kg): 8460 µM | concentration at 65 min (rat, bile, iv, 100 umol/kg): 5370 µM | concentration at 70 min (rat, bile, iv, 100 umol/kg): 5370 µM | concentration at 1.25 h (rat, bile, iv, 100 umol/kg): 5310 µM | concentration at 80 min (rat, bile, iv, 100 umol/kg): 5310 µM | concentration at 85 min (rat, bile, iv, 100 umol/kg): 4660 µM | concentration at 1.5 h (rat, bile, iv, 100 umol/kg): 4660 µM | dose excreted at 1.5 h (rat, bile, iv, 100 umol/kg): 40% | Bile flow (rat, 0-10 min): .04071 mL/min | Bile flow per kg b.w. (rat, 0-10 min): .09359 ml/min per kg b.w. | Bile flow per kg l.w. (rat, 0-10 min): 3.127 ml/min per kg l.w. | Biliary excretion rate (rat, 0-10 min): .123 µmol/min | Biliary excretion rate per kg b.w. (rat, 0-10 min): .282 umoles/min per kg b.w. | Biliary excretion rate per kg l.w. (rat, 0-10 min): 9.411 umoles/min per kg l.w. | umoles in bile sample (rat, 0-10 min): 1.23 UMOLES | Bile flow (rat, 10-20 min): .03675 mL/min | Bile flow per kg b.w. (rat, 10-20 min): .08448 ml/min per kg b.w. | Bile flow per kg l.w. (rat, 10-20 min): 2.823 ml/min per kg l.w. | Biliary excretion rate (rat, 10-20 min): .212 µmol/min | Biliary excretion rate per kg b.w. (rat, 10-20 min): .488 umoles/min per kg b.w. | Biliary excretion rate per kg l.w. (rat, 10-20 min): 16.308 umoles/min per kg l.w. | umoles in bile sample (rat, 10-20 min): 2.12 UMOLES | Bile flow (rat, 20-30 min): .04050 mL/min | Bile flow per kg b.w. (rat, 20-30 min): .09310 ml/min per kg b.w. | Bile flow per kg l.w. (rat, 20-30 min): 3.111 ml/min per kg l.w. | Biliary excretion rate (rat, 20-30 min): .261 µmol/min | Biliary excretion rate per kg b.w. (rat, 20-30 min): .599 umoles/min per kg b.w. | Biliary excretion rate per kg l.w. (rat, 20-30 min): 20.020 umoles/min per kg l.w. | umoles in bile sample (rat, 20-30 min): 2.61 UMOLES | Bile flow (rat, 30-40 min): .02992 mL/min | Bile flow per kg b.w. (rat, 30-40 min): .06878 ml/min per kg b.w. | Bile flow per kg l.w. (rat, 30-40 min): 2.298 ml/min per kg l.w. | Biliary excretion rate (rat, 30-40 min): .233 µmol/min | Biliary excretion rate per kg b.w. (rat, 30-40 min): .537 umoles/min per kg b.w. | Biliary excretion rate per kg l.w. (rat, 30-40 min): 17.931 umoles/min per kg l.w. | umoles in bile sample (rat, 30-40 min): 2.33 UMOLES | Bile flow (rat, 40-50 min): .03047 mL/min | Bile flow per kg b.w. (rat, 40-50 min): .07005 ml/min per kg b.w. | Bile flow per kg l.w. (rat, 40-50 min): 2.34 ml/min per kg l.w. | Biliary excretion rate (rat, 40-50 min): .233 µmol/min | Biliary excretion rate per kg b.w. (rat, 40-50 min): .535 umoles/min per kg b.w. | Biliary excretion rate per kg l.w. (rat, 40-50 min): 17.882 umoles/min per kg l.w. | umoles in bile sample (rat, 40-50 min): 2.33 UMOLES | Bile flow (rat, 50-60 min): .02817 mL/min | Bile flow per kg b.w. (rat, 50-60 min): .06476 ml/min per kg b.w. | Bile flow per kg l.w. (rat, 50-60 min): 2.164 ml/min per kg l.w. | Biliary excretion rate (rat, 50-60 min): .238 µmol/min | Biliary excretion rate per kg b.w. (rat, 50-60 min): .548 umoles/min per kg b.w. | Biliary excretion rate per kg l.w. (rat, 50-60 min): 18.307 umoles/min per kg l.w. | umoles in bile sample (rat, 50-60 min): 2.38 UMOLES | Bile flow (rat, 60-70 min): .02721 mL/min | Bile flow per kg b.w. (rat, 60-70 min): .06255 ml/min per kg b.w. | Bile flow per kg l.w. (rat, 60-70 min): 2.09 ml/min per kg l.w. | Biliary excretion rate (rat, 60-70 min): .146 µmol/min | Biliary excretion rate per kg b.w. (rat, 60-70 min): .336 umoles/min per kg b.w. | Biliary excretion rate per kg l.w. (rat, 60-70 min): 11.228 umoles/min per kg l.w. | umoles in bile sample (rat, 60-70 min): 1.46 UMOLES | Bile flow (rat, 70-80 min): .02653 mL/min | Bile flow per kg b.w. (rat, 70-80 min): .06099 ml/min per kg b.w. | Bile flow per kg l.w. (rat, 70-80 min): 2.038 ml/min per kg l.w. | Biliary excretion rate (rat, 70-80 min): .141 µmol/min | Biliary excretion rate per kg b.w. (rat, 70-80 min): .324 umoles/min per kg b.w. | Biliary excretion rate per kg l.w. (rat, 70-80 min): 10.811 umoles/min per kg l.w. | umoles in bile sample (rat, 70-80 min): 1.41 UMOLES | Bile flow (rat, 80-90 min): .02586 mL/min | Bile flow per kg b.w. (rat, 80-90 min): .05945 ml/min per kg b.w. | Bile flow per kg l.w. (rat, 80-90 min): 1.986 ml/min per kg l.w. | Biliary excretion rate (rat, 80-90 min): .121 µmol/min | Biliary excretion rate per kg b.w. (rat, 80-90 min): .277 umoles/min per kg b.w. | Biliary excretion rate per kg l.w. (rat, 80-90 min): 9.262 umoles/min per kg l.w. | umoles in bile sample (rat, 80-90 min): 1.21 UMOLES | Bile flow [1]: .02093 mL/min | Bile flow per kg b.w. [1]: .04811 ml/min per kg b.w. | Bile flow per kg l.w. [1]: 1.608 ml/min per kg l.w. | Biliary excretion rate [1]: .013 µmol/min | Biliary excretion rate per kg b.w. [1]: .031 umoles/min per kg b.w. | Biliary excretion rate per kg l.w. [1]: 1.021 umoles/min per kg l.w. | umoles in bile sample [1]: .13 UMOLES
